This note sets out measurements from US10849880B2, “Pharmaceutical composition” (FUJIFILM Toyama Chemical Co., Ltd., priority 2016, dated 2020).

Series [1] in a line: pH of maleate of compound A and additive dissolved or suspended in 10 mmol/L KCl solution. Type of series: physicochemical. The settings on record: maleate of compound A 1 mg/mL with additive. The procedure: The pH was measured when the maleate of compound A and the additive were dissolved or suspended in a 10 mmol/L KCl solution in such a way as to reach the respective numerical values shown in Table 2 to Table 6.

A short description of series [2]: Evaluation of degradation material: stress test at 70° C. for 7 days, HPLC. The settings on record: class of degradation material after 70° C. Type of series: physicochemical. The procedure:
The prepared solid pharmaceutical composition was subjected to a stress test that it was stored in a thermostat at 70° C. for 7 days. The storage stability was evaluated in terms of the amount of compound A decomposed by the following method.
The above stored solid pharmaceutical composition was adjusted with water/acetonitrile/pH 3.0 phosphate buffer (450:50:1) such that the maleate of compound A had 333 μg/mL and was filtered through a membrane filter to obtain a filtrate. The degradation material of compound A was quantified by high performance liquid chromatography (HPLC). The amount of the degradation material detected at a relative retention time of 0.94 with respect to compound A was quantified as the degradation material of compound A under the following measurement conditions.
(HPLC Measurement Condition)
Evaluation criteria for the degradation material are as follows:
Evaluation was performed in the same manner as described in Examples 1-19 and Comparative Examples 1-14.

Turning to `OC1CN(CCCOCCc2ccc3sccc3c2)C1` [compound 14, 1-(3-(2-(1-benzothiophen-5-yl)ethoxy)propyl)azetidin-3-ol], the pH in series [1] turned out to be 4.5. For the same compound, the “Evaluation of degradation material” value in series [2] is recorded as “A (Less than 0.25%)”.
